# What was measured:
# Type in all cases: cell-based
# PGE2 = PGE2 release into culture medium by ELISA, glutamate-treated neuron cultures from STEP KO mice; details: STEP KO mice neurons; 50 μM glutamate; 2 h; MK801 5 μM, SB203580 5 μM, CAY10404 100 nM, Bengamide B 500 nM
# Method: (§1) Cell culture and stimulation: For cell culture studies adult WT male and female mice and STEP KO male and female mice were mated to generate timed pregnant female mice. The males were removed from the females after 24 h period, which was considered gestational day 1. Pregnancy was verified by the presence of vaginal plugs and/or weight gain. Primary neuronal cultures were obtained from 15-day-old mice embryos as described previously (Deep et al., 2019). Briefly, the striatum and the adjoining cortex was dissected, the tissue dissociated mechanically and resuspended in Dulbecco's modified Eagle's medium/F-12 (1:1) containing 5% fetal calf serum. Cells (6×10^6 cells/dish) were plated on poly-D-lysine-coated tissue culture dishes (BD Biosciences) and grown for 12-14 days at 37° C. in a humidified atmosphere (95:5% air:CO2 mixture). For receptor stimulation cells were treated with glutamate or NMDA for the indicated times and then processed for immunoblot analysis. Glycine concentration in the medium during glutamate treatment was 10 μM. In some experiments, DL-2-amino-5-phosphonopentanoic acid (APV, 200 μM), MK-801 (5 μM), SB203580 (5 μM), CAY10404 (100 nM) or Bengamide B (500 nM) were added 5 min 10 min before addition of glutamate. Some cultures were treated with the TAT-STEP-myc peptide (4 μM) prior glutamate treatment.
# For measurement of PGE2 and soluble CX3CL1 levels released from neurons, culture medium was collected from each experimental plate and centrifuged at 200 g for 5 min to remove cellular debris. […] PGE2 level was assessed using the PGE2 enzyme-linked immunosorbent assay (ELISA) kit (Cat #: K051-H1) from Arbor assays (Ann Arbor, Mich., USA), according to the manufacturer's instructions. Soluble CX3CL1 level was assessed using the ELISA kit (Cat #: MCX310) from R&D systems (Minneapolis, Minn., USA), according to the manufacturer's instructions.
# To evaluate the effect of STEP gene deletion on glutamate-mediated PGE2 release in subsequent studies neuron cultures from WT or STEP KO mice were treated with 50 μM glutamate (Glu) for 20 min and then maintained in its original medium for the specified times (post-glutamate time: 2 h and 4 h). […] Equal amount of culture medium from each sample was analyzed for PGE2 levels using ELISA. Values are expressed as mean±SEM. *, indicates significant difference from untreated control in STEP KO cultures (p<0.05); ^¶, indicates significant difference from glutamate treated STEP KO cultures (p<0.05). […]
# FIGS. 9A-9D show the role of NFκB activation in glutamate induced COX2 expression and PGE2 release. […] Quantification of IκB-α and COX-2 are represented as mean±SEM. *, indicates significant difference from untreated control in STEP KO culture (p<0.05); ^¶, indicates significant difference from glutamate treated STEP KO culture. […]
# cPLA2 = cPLA2 activity assay in glutamate-treated neuron cultures from STEP KO mice; details: STEP KO mice neurons; 50 μM glutamate 20 min; MK801 5 μM or SB 203580 5 μM; 2 h after the insult
# Method: (§2) Cell culture and stimulation: For cell culture studies adult WT male and female mice and STEP KO male and female mice were mated to generate timed pregnant female mice. The males were removed from the females after 24 h period, which was considered gestational day 1. Pregnancy was verified by the presence of vaginal plugs and/or weight gain. Primary neuronal cultures were obtained from 15-day-old mice embryos as described previously (Deep et al., 2019). Briefly, the striatum and the adjoining cortex was dissected, the tissue dissociated mechanically and resuspended in Dulbecco's modified Eagle's medium/F-12 (1:1) containing 5% fetal calf serum. […]
# In FIG. 5A, neuron cultures from WT or STEP KO mice were treated with 50 μM glutamate (Glu) for 20 min and then maintained in its original medium for the specified time (2 h and 4 h). […] Cell lysates with equal amount of protein from each sample was analyzed for cPLA2 activity using enzymatic assay. Values are expressed as mean±SEM. *, indicates significant difference from untreated control in WT cultures (p<0.05); ^Δ, indicates significant difference from untreated control in STEP KO cultures (p<0.05); ^¶, significant difference from 20 min glutamate treatment in STEP KO cultures (p<0.05). […]
# COX2 = COX2 protein level by immunoblot in glutamate-treated neuron cultures from STEP KO mice; details: STEP KO mice neurons; 50 μM glutamate 20 min; post-glutamate time 2 h; MK801 5 μM, SB203580 5 μM, Bengamide B 500 nM, TAT-STEP-myc 4 μM
# Method: as §1, with “In some experiments, DL-2-amino-5-phosphonopentanoic acid (APV, 200 μM), MK-801 (5 μM), SB203580 (5 μM), CAY10404 (100 nM) or Bengamide B (500 nM) were added 5 min 10 min before addition of glutamate. Some cultures were treated with the TAT-STEP-myc peptide (4 μM) prior glutamate treatment.” left out
# In a parallel series of experiments, we further evaluated the expression of COX2, which is involved in the conversion of AA to prostanoids. […] Cell lysates with equal amount of protein from each sample was analyzed by immunoblotting with anti-COX2 (upper panel) or anti-β-tubulin (lower panel) antibodies. Quantification of COX2 is represented as mean±SEM. *, indicates significant difference from untreated control in STEP KO cultures (p<0.05); ^¶, indicates significant difference from glutamate treated STEP KO cultures (p<0.05).
# FIGS. 9A-9D show the role of NFκB activation in glutamate induced COX2 expression and PGE2 release. […] (FIG. 9A-C) Cell lysates with equal amount of protein from each sample was analyzed by immunoblotting with (FIG. 9A, B) anti-IκB-α (upper panel) and anti-β-tubulin (lower panel) antibodies, or (C) anti-COX-2 (upper panel) and anti-β-tubulin (lower panel) antibodies. […] (FIG. 9D) Equal amount of culture medium from each sample was analyzed for PGE2 levels using ELISA. […]
# IκB-α = experiment: IκB degradation (NF-κB activation) by immunoblot in glutamate-treated neuron cultures from STEP KO mice; details: STEP KO mice neurons; 50 μM glutamate; 2 h
# Method: as §2
# Earlier studies have shown that the nuclear factor kappa B (NF-κB) is a key regulator of COX2 expression in different cell types (Yamamoto et al., 1995; Kaltschmidt et al., 2002; Guo et al., 2013; Ackerman et al., 2008; Shi et al., 2015), and the ionotropic glutamate receptors is one of the activators of NF-κB in neurons (Kaltschmidt et al., 2005). To clarify the role of NF-κB in glutamate-NMDAR induced activation of the COX-2-PGE2 signaling pathway in STEP KO mice neurons, we next evaluated the effect of glutamate on IκB degradation, a seminal step in NF-κB activation (Karin and Ben-Neriah 2000; Rajagopal et al., 2019). […]
Compound,glutamate-induced PGE2 release (PGE2),cPLA2 activity (cPLA2),glutamate-induced increase in COX2 level (COX2),glutamate-induced IκB degradation (IκB-α)
CS(=O)(=O)c1ccc(-c2noc(C(F)(F)F)c2-c2ccccc2)cc1 [CAY10404],significantly reduced,–,–,–
"C[S+]([O-])c1ccc(-c2nc(-c3ccncc3)c(-c3ccc(F)cc3)[nH]2)cc1 (centres unmarked) [SB 203580, SB203580]",significantly reduced,significantly reduced,attenuated,effectively blocked
CCCCCCCCCCCCCC(=O)O[C@H]1CC[C@H](NC(=O)[C@H](OC)[C@H](O)[C@@H](O)[C@H](O)/C=C/C(C)C)C(=O)N(C)C1 [Bengamide B],significant reduction,–,attenuated,–
"C[C@]12N[C@H](Cc3ccccc31)c1ccccc12 [MK801, MK-801]",significantly reduced,significantly reduced,attenuated,effectively blocked
